Test results reported in patent publication US20100298141A1, “SUBSTITUTED PYRIDINE N-OXIDE HERBICIDES” (E. I. DU PONT DE NEMOURS AND COMPANY, priority 2007, published 2010).

Columns and labels:
common ragweed = test: Test C pre-/postemergence test; assay type: in vivo, Ambrosia elation
Summary of the method: (§1)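 Seeds were planted and treated preemergence with test chemical in a non-phytotoxic solvent mixture containing surfactant. Postemergence applications of the same formulation went onto plants 2 to 18 cm tall (1- to 4-leaf stage). A dash marks no test result.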

kochia = test: Test C pre-/postemergence test; assay type: in vivo, Kochia scoparia
Summary of the method: as §1

crabgrass = test: Test A pre-/postemergence greenhouse test; assay type: in vivo, Digitaria sanguinalis; settings: for Plant response rating, Crabgrass, Large: 0 to 100 scale where 0 is no effect and 100 is complete control; for Crabgrass, Large plant response rating: 0 to 100 scale
Summary of the method: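 Untreated controls served as the reference for visual injury ratings taken about ten days after spraying. The non-phytotoxic solvent/surfactant formulation was applied preemergence to seeded loam and sand and postemergence to plants two to ten cm high.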

yellow nutsedge = test: Test C pre-/postemergence test; assay type: in vivo, Cyperus esculentus
Summary of the method: as §1

[1] = 62 g ai/ha, Preemergence, scale 0 to 100
[2] = 125 g ai/ha, preemergence, scale 0 (no effect) to 100 (complete control)
[3] = Preemergence, 31 g ai/ha, scale 0 to 100 (0 no effect, 100 complete control)
[4] = preemergence, 250 g ai/ha, scale 0 (no effect) to 100 (complete control)
[5] = Postemergence, 500 g ai/ha, 0 is no effect, 100 is complete control
[6] = Preemergence, 125 g ai/ha, 0 no effect, 100 complete control
[7] = Preemergence, 500 g ai/ha, 0 no effect, 100 complete control
[8] = Postemergence, 125 g ai/ha, 0 is no effect, 100 is complete control
[9] = Postemergence, 125 g ai/ha, scale 0 to 100, 0 no effect, 100 complete control
[10] = Postemergence, 250 g ai/ha, scale 0 to 100, 0 no effect, 100 complete control
[11] = Postemergence, 62 g ai/ha, scale 0 to 100, 0 no effect, 100 complete control

Row | Compound | Ragweed plant response rating (common ragweed; [1]) | Ragweed plant response rating (common ragweed; [2]) | Plant response rating, Ragweed (common ragweed; [3]) | Ragweed plant response rating (common ragweed; [4]) | Kochia plant response rating (kochia; [1]) | Kochia plant response rating (kochia; [2]) | Plant response rating, Kochia (kochia; [3]) | Kochia plant response rating (kochia; [4]) | Plant response rating, Crabgrass, Large (crabgrass; Postemergence, 125 g ai/ha) | Crabgrass, Large plant response rating (crabgrass; [5]) | Crabgrass, Large plant response rating (crabgrass; [6]) | Plant response rating, Crabgrass, Large (crabgrass; Preemergence, 500 g ai/ha) | Nutsedge, Yellow plant response rating (yellow nutsedge; [1]) | Nutsedge, Yellow plant response rating (yellow nutsedge; [2]) | Plant response rating, Nutsedge, Yellow (yellow nutsedge; [3]) | Nutsedge, Yellow plant response rating (yellow nutsedge; [4]) | Crabgrass, Large plant response rating (crabgrass; [8]) | further results
1 | Cn1nc(C(F)(F)F)c(C[S+]([O-])c2ccc(F)c[n+]2[O-])c1Cl (stereo not drawn) [Compound 54] | 0 | 5 | 0 | 10 | 100 | 100 | 50 | 100 | 20 | 80 | 80 | 90 | 65 | 100 | 0 | 100 |  | 
2 | Cc1cc[n+]([O-])c(S(=O)(=O)Cc2c(C(F)(F)C(F)(F)F)nn(C)c2OCC(F)(F)F)c1 [Compound 99] | 100 | 100 |  | 100 | 100 | 100 | 100 | 100 | 60 | 80 | 80 |  | 60 | 60 | 0 | 80 |  | Crabgrass, Large plant response rating (crabgrass; [7]): 100
3 | Cn1nc(C(F)(F)F)c(C[S+]([O-])c2cc(C(F)(F)F)cc[n+]2[O-])c1Cl (racemic) [Compound 34] | 45 |  | 45 |  | 0 |  | 0 |  |  | 70 | 60 | 70 | 70 |  | 70 |  | 10 | 
4 | C#CCOc1c(CS(=O)(=O)c2cccc[n+]2[O-])c(C(F)(F)F)nn1C [Compound 103] | 0 | 80 | 0 | 85 | 0 | 100 |  | 100 | 70 | 90 | 70 |  | 70 | 85 | 0 | 85 |  | Crabgrass, Large plant response rating (crabgrass; [7]): 100
5 | Cn1nc(C(F)(F)F)c(CS(=O)(=O)c2ccc(Cl)c[n+]2[O-])c1Cl [Compound 18] | 0 |  | 0 |  | 0 |  | 0 |  |  | 80 | 80 | 90 | 0 |  | 0 |  | 60 | 
6 | Cn1nc(C(F)(F)F)c(C[S+]([O-])c2ccc(Cl)c[n+]2[O-])c1Cl (racemic) [Compound 17] | 75 |  | 10 |  | 100 |  | 80 |  |  | 90 | 90 | 100 | 80 |  | 70 |  | 80 | 
7 | Cn1nc(C(F)(F)F)c(CS(=O)(=O)c2ccc(Cl)c[n+]2[O-])c1OCC(F)(F)F [Compound 73] | 70 | 95 | 60 | 100 | 100 | 100 | 60 | 100 | 60 | 80 | 70 | 90 | 0 | 40 | 0 | 80 |  | 
8 | CCc1cc[n+]([O-])c([S+]([O-])Cc2c(C(F)(F)F)nn(C)c2OC(F)F)c1 (stereo not drawn) [Compound 101] | 10 | 100 | 0 | 100 | 30 | 85 | 0 | 100 | 60 | 90 | 90 |  | 20 | 60 | 0 | 100 |  | Crabgrass, Large plant response rating (crabgrass; [7]): 100
9 | Cn1nc(C(F)(F)F)c(C[S+]([O-])c2cc(F)cc[n+]2[O-])c1Cl (racemic) [Compound 42] | 70 | 90 | 5 | 90 | 100 | 100 | 100 | 100 |  | 90 | 70 | 100 | 60 | 85 | 0 | 95 | 80 | 
10 | CCn1nc(C(F)(F)F)c(C(C)S(=O)(=O)c2cccc[n+]2[O-])c1OCC(F)(F)F (stereo not drawn) [Compound 69] |  |  |  |  |  |  |  |  | 80 | 90 | 40 | 100 |  |  |  |  |  | Plant response rating (0 to 100), Ragweed (common ragweed; Postemergence, 31 g ai/ha): 0; Plant response rating (0 to 100), Ragweed (common ragweed; Postemergence, 62 g ai/ha): 0; Plant response rating, Ragweed (common ragweed; [9]): 0; Plant response rating, Ragweed (common ragweed; [10]): 0; Plant response rating (0 to 100), Kochia (kochia; Postemergence, 31 g ai/ha): 0; Plant response rating, Kochia (kochia; [11]): 0; Plant response rating, Kochia (kochia; [9]): 0; Plant response rating, Kochia (kochia; [10]): 0; Plant response rating (0 to 100), Nutsedge, Yellow (yellow nutsedge; Postemergence, 31 g ai/ha): 0; Plant response rating, Nutsedge, Yellow (yellow nutsedge; [11]): 0; Plant response rating, Nutsedge, Yellow (yellow nutsedge; [9]): 0; Plant response rating, Nutsedge, Yellow (yellow nutsedge; [10]): 0
11 | Cn1nc(C(F)(F)F)c(C[S+]([O-])c2cc(C(C)(C)C)cc[n+]2[O-])c1OC(F)F (racemic) [Compound 24] | 70 |  | 0 |  | 5 |  | 0 |  |  | 60 | 90 | 100 | 70 |  | 0 |  | 0 | 
